# Columns and labels:
# Format in all cases: functional
# [1] = test system: Klebsiella pneumoniae; experiment: Antimicrobial activity against ESBL-positive Klebsiella pneumoniae 19039 harboring porin OmpK36V mutant gene by Etest
# [2] = test system: Klebsiella pneumoniae; experiment: Antimicrobial activity against ESBL-positive Klebsiella pneumoniae 25008 by Etest
# [3] = test system: Klebsiella pneumoniae; experiment: Antimicrobial activity against ESBL-positive Klebsiella pneumoniae 50748 harboring porin OmpK36 gene by Etest
# [4] = test system: Klebsiella pneumoniae; experiment: Antimicrobial activity against ESBL-positive Klebsiella pneumoniae 16855 harboring porin OmpK36 and OmpK35 genes by Etest
# [5] = test system: Klebsiella pneumoniae; experiment: Antimicrobial activity against ESBL-negative Klebsiella pneumoniae 299332 harboring porin OmpK36 gene by Etest
# [6] = test system: Klebsiella pneumoniae; experiment: Antimicrobial activity against ESBL-positive Klebsiella pneumoniae 69036 harboring porin OmpK36V mutant gene by Etest
# [7] = test system: Klebsiella pneumoniae; experiment: Antimicrobial activity against ESBL-positive Klebsiella pneumoniae 17049 harboring porin OmpK36V mutant gene by Etest
# [8] = test system: Klebsiella pneumoniae; experiment: Antimicrobial activity against ESBL-positive Klebsiella pneumoniae 29830 harboring porin OmpK36V mutant gene by Etest
# [9] = test system: Klebsiella pneumoniae; experiment: Antimicrobial activity against ESBL-positive Klebsiella pneumoniae 11932 harboring porin OmpK36 gene by Etest
# [10] = test system: Klebsiella pneumoniae; experiment: Antimicrobial activity against ESBL-positive Klebsiella pneumoniae 17829 by Etest
# [11] = test system: Klebsiella pneumoniae; experiment: Antimicrobial activity against ESBL-positive Klebsiella pneumoniae 31750 harboring porin OmpK36 gene by Etest
# [12] = test system: Klebsiella pneumoniae; experiment: Antimicrobial activity against ESBL-positive Klebsiella pneumoniae 71697 harboring porin OmpK36V mutant gene by Etest
# [13] = test system: Klebsiella pneumoniae; experiment: Antimicrobial activity against ESBL-negative Klebsiella pneumoniae 30018 harboring porin OmpK35 gene by Etest
# [14] = test system: Klebsiella pneumoniae; experiment: Antimicrobial activity against ESBL-positive Klebsiella pneumoniae 16830 harboring porin OmpK36 gene by Etest
# [15] = test system: Klebsiella pneumoniae; experiment: Antimicrobial activity against ESBL-positive Klebsiella pneumoniae 18260 harboring pSHA2-encoded porin OmpK36 gene by Etest
# [16] = test system: Klebsiella pneumoniae; experiment: Antimicrobial activity against ESBL-positive Klebsiella pneumoniae 17829 harboring pSHA2-encoded porin OmpK36 gene by Etest
# [17] = test system: Klebsiella pneumoniae; experiment: Antimicrobial activity against ESBL-positive Klebsiella pneumoniae 26077 harboring porin OmpK36V mutant gene by Etest
# [18] = test system: Klebsiella pneumoniae; experiment: Antimicrobial activity against ESBL-positive Klebsiella pneumoniae 6267 harboring porin OmpK36V mutant gene by Etest
# [19] = test system: Klebsiella pneumoniae; experiment: Antimicrobial activity against ESBL-positive Klebsiella pneumoniae 17830 harboring porin OmpK36V mutant gene by Etest
# [20] = test system: Klebsiella pneumoniae; experiment: Antimicrobial activity against ESBL-positive Klebsiella pneumoniae 17834 harboring porin OmpK36V mutant gene by Etest
# [21] = test system: Klebsiella pneumoniae; experiment: Antimicrobial activity against ESBL-positive Klebsiella pneumoniae 287942 harboring porin OmpK36 gene by Etest
# [22] = test system: Klebsiella pneumoniae; experiment: Antimicrobial activity against ESBL-positive Klebsiella pneumoniae 18260 by Etest
# [23] = test system: Klebsiella pneumoniae; experiment: Antimicrobial activity against ESBL-positive Klebsiella pneumoniae 18567 harboring porin OmpK36V mutant gene by Etest
# [24] = test system: Klebsiella pneumoniae; experiment: Antimicrobial activity against ESBL-positive Klebsiella pneumoniae 29459 harboring porin OmpK36 gene by Etest
# [25] = test system: Klebsiella pneumoniae; experiment: Antimicrobial activity against ESBL-positive Klebsiella pneumoniae 69928 harboring porin OmpK36V mutant gene by Etest
# [26] = test system: Klebsiella pneumoniae; experiment: Antimicrobial activity against ESBL-positive Klebsiella pneumoniae 18918 harboring porin OmpK36V mutant gene by Etest
# [27] = test system: Klebsiella pneumoniae; experiment: Antimicrobial activity against ESBL-positive Klebsiella pneumoniae 26077 harboring porin OmpK36V mutant gene by Etest in presence of Tazobactam
# [28] = test system: Klebsiella pneumoniae; experiment: Antimicrobial activity against ESBL-positive Klebsiella pneumoniae 69928 harboring porin OmpK36V mutant gene by Etest in presence of Tazobactam
# [29] = test system: Klebsiella pneumoniae; experiment: Antimicrobial activity against ESBL-positive Klebsiella pneumoniae 17834 harboring porin OmpK36V mutant gene by Etest in presence of Tazobactam
# [30] = test system: Klebsiella pneumoniae; experiment: Antimicrobial activity against ESBL-positive Klebsiella pneumoniae 31750 harboring porin OmpK36 gene by Etest in presence of Tazobactam
# [31] = test system: Klebsiella pneumoniae; experiment: Antimicrobial activity against ESBL-positive Klebsiella pneumoniae 19039 harboring porin OmpK36V mutant gene by Etest in presence of Tazobactam
# [32] = test system: Klebsiella pneumoniae; experiment: Antimicrobial activity against ESBL-positive Klebsiella pneumoniae 17829 by Etest in presence of Tazobactam
# [33] = test system: Klebsiella pneumoniae; experiment: Antimicrobial activity against ESBL-positive Klebsiella pneumoniae 17049 harboring porin OmpK36V mutant gene by Etest in presence of Tazobactam
# [34] = test system: Klebsiella pneumoniae; experiment: Antimicrobial activity against ESBL-negative Klebsiella pneumoniae 299332 harboring porin OmpK36 gene by Etest in presence of Tazobactam
# [35] = test system: Klebsiella pneumoniae; experiment: Antimicrobial activity against ESBL-negative Klebsiella pneumoniae 30018 harboring porin OmpK35 gene by Etest in presence of Tazobactam
# [36] = test system: Klebsiella pneumoniae; experiment: Antimicrobial activity against ESBL-positive Klebsiella pneumoniae 287942 harboring porin OmpK36 gene by Etest in presence of Tazobactam
# [37] = test system: Klebsiella pneumoniae; experiment: Antimicrobial activity against ESBL-positive Klebsiella pneumoniae 11932 harboring porin OmpK36 gene by Etest in presence of Tazobactam
# [38] = test system: Klebsiella pneumoniae; experiment: Antimicrobial activity against ESBL-positive Klebsiella pneumoniae 29459 harboring porin OmpK36 gene by Etest in presence of Tazobactam
# [39] = test system: Klebsiella pneumoniae; experiment: Antimicrobial activity against ESBL-positive Klebsiella pneumoniae 71697 harboring porin OmpK36V mutant gene by Etest in presence of Tazobactam
# [40] = test system: Klebsiella pneumoniae; experiment: Antimicrobial activity against ESBL-positive Klebsiella pneumoniae 16855 harboring porin OmpK36 and OmpK35 genes by Etest in presence of Tazobactam
# [41] = test system: Klebsiella pneumoniae; experiment: Antimicrobial activity against ESBL-positive Klebsiella pneumoniae 18567 harboring porin OmpK36V mutant gene by Etest in presence of Tazobactam
# [42] = test system: Klebsiella pneumoniae; experiment: Antimicrobial activity against ESBL-positive Klebsiella pneumoniae 16830 harboring porin OmpK36 gene by Etest in presence of Tazobactam
# [43] = test system: Klebsiella pneumoniae; experiment: Antimicrobial activity against ESBL-positive Klebsiella pneumoniae 18918 harboring porin OmpK36V mutant gene by Etest in presence of Tazobactam
# [44] = test system: Klebsiella pneumoniae; experiment: Antimicrobial activity against ESBL-positive Klebsiella pneumoniae 18260 by Etest in presence of Tazobactam
# [45] = test system: Klebsiella pneumoniae; experiment: Antimicrobial activity against ESBL-positive Klebsiella pneumoniae 17830 harboring porin OmpK36V mutant gene by Etest in presence of Tazobactam
# [46] = test system: Klebsiella pneumoniae; experiment: Antimicrobial activity against ESBL-positive Klebsiella pneumoniae 50748 harboring porin OmpK36 gene by Etest in presence of Tazobactam
# [47] = test system: Klebsiella pneumoniae; experiment: Antimicrobial activity against ESBL-positive Klebsiella pneumoniae 25008 by Etest in presence of Tazobactam
# [48] = test system: Klebsiella pneumoniae; experiment: Antimicrobial activity against ESBL-positive Klebsiella pneumoniae 29830 harboring porin OmpK36V mutant gene by Etest in presence of Tazobactam
# [49] = test system: Klebsiella pneumoniae; experiment: Antimicrobial activity against ESBL-positive Klebsiella pneumoniae 69036 harboring porin OmpK36V mutant gene by Etest in presence of Tazobactam
# [50] = test system: Klebsiella pneumoniae; experiment: Antimicrobial activity against ESBL-positive Klebsiella pneumoniae 6267 harboring porin OmpK36V mutant gene by Etest in presence of Tazobactam
structure (smiles),measurement,setting,value
C[C@@H](O)[C@H]1C(=O)N2C(C(=O)O)=C(S[C@@H]3CN[C@H](C(=O)N(C)C)C3)[C@H](C)[C@H]12 [MEROPENEM],MIC,[1],1 µg/mL
same,MIC,[2],4 µg/mL
same,MIC,[3],0.094 µg/mL
same,MIC,[4],0.064 µg/mL
same,MIC,[5],0.032 µg/mL
same,MIC,[6],1 µg/mL
same,MIC,[7],2 µg/mL
same,MIC,[8],1 µg/mL
same,MIC,[9],0.064 µg/mL
same,MIC,[10],12 µg/mL
same,MIC,[11],0.064 µg/mL
same,MIC,[12],1.5 µg/mL
same,MIC,[13],0.032 µg/mL
same,MIC,[14],0.047 µg/mL
same,MIC,[15],1 µg/mL
same,MIC,[16],1 µg/mL
same,MIC,[17],1 µg/mL
same,MIC,[18],1 µg/mL
same,MIC,[19],1.5 µg/mL
same,MIC,[20],0.75 µg/mL
same,MIC,[21],0.064 µg/mL
same,MIC,[22],12 µg/mL
same,MIC,[23],1 µg/mL
same,MIC,[24],0.094 µg/mL
same,MIC,[25],1.5 µg/mL
same,MIC,[26],1 µg/mL
CCN1CCN(C(=O)N[C@@H](C(=O)N[C@@H]2C(=O)N3[C@@H]2SC(C)(C)[C@@H]3C(=O)O)c2ccccc2)C(=O)C1=O [PIPERACILLIN],MIC,[27],> 256 µg/mL
same,MIC,[28],> 256 µg/mL
same,MIC,[29],> 256 µg/mL
same,MIC,[30],8 µg/mL
same,MIC,[31],> 256 µg/mL
same,MIC,[32],> 256 µg/mL
same,MIC,[33],> 256 µg/mL
same,MIC,[34],6 µg/mL
same,MIC,[35],3 µg/mL
same,MIC,[36],> 256 µg/mL
same,MIC,[37],> 256 µg/mL
same,MIC,[38],> 256 µg/mL
same,MIC,[39],> 256 µg/mL
same,MIC,[40],32 µg/mL
same,MIC,[41],> 256 µg/mL
same,MIC,[42],16 µg/mL
same,MIC,[43],> 256 µg/mL
same,MIC,[44],> 256 µg/mL
same,MIC,[45],> 256 µg/mL
same,MIC,[46],12 µg/mL
same,MIC,[47],> 256 µg/mL
same,MIC,[48],> 256 µg/mL
same,MIC,[49],> 256 µg/mL
same,MIC,[50],12 µg/mL

# Source: ChEMBL document CHEMBL1671734, “An ertapenem-resistant extended-spectrum-beta-lactamase-producing Klebsiella pneumoniae clone carries a novel OmpK36 porin variant” (2010)
